This note sets out measurements from patent publication US20190038674A1, “Formulation for the Treatment of Diabetes” (priority 2013, published 2019).

Several values for one entry are separate records, joined by “and”; a condition that tells them apart may be missing. Identical values can stand only once.

What all share (assay type): in vivo, Wistar Albino rat
The test system of test [1] is streptozotocin treated diabetic rats. The test is described as follows: Fasting blood glucose in streptozotocin induced diabetic rats, 15 days of treatment. The conditions noted are these: for Blood glucose on 15th day: Glyclazide 1.44 mg/200 g body weight, single oral dose daily, day 1 to 15; for Blood glucose on 1st day: before treatment, group later given Glyclazide 1.44 mg/200 g body weight oral daily. The method, then:
Albino Wistar rats of both sex (male and female) were procured from the laboratory of Columbia Institute of Pharmacy Tekari, Raipur 493111 (C.G.), India, and were maintained under a 12 h light/dark cycle and allowed for feed and water without limit. Approved experimental protocol in accordance with the guidelines provided by the committee for the control and supervision of experiments on animals (CPCSEA). The experimental rats were registered by CPCSEA and registration number was 1321/ac/10/CPCSEA.
A. Species: Wistar Albino rat
(§1) Diabetes was induced in rats by the intra peritoneal injection of streptozotocin (Himedia) at a dose of 50 mg/kg body weight dissolved in citrate buffer (0.1 M, pH 4.5) in the volume of 1 ml/kg. The diabetic rats were given 5% w/v glucose solution orally in order to prevent hypoglycemia during the first day after the streptozotocin administration. Three days after the injection (six group), the blood glucose levels were measured and the animals with blood glucose levels above 300 mg/dl were considered as being diabetic and were used in the subsequent experiments. In all the experiments, rats were fasted for 16 hr prior to streptozotocin injection. • a. Total units=202.5 • b. 1 ml=40 units, 0.1 ml=4 units • c. Therefore total units 202.5/40 units=5.06 ml of streptozotocin solution • d. Freshly prepared streptozotocin solution (5.06 ml of solution/36 rats according to body weight) fed as a single dose only once to induce diabetes.
(§2) Experimental rats were divided in 4 groups of 6 rats per group and 4th group further divided in 4 groups with 6 rats in each sub group. The details of treatments were given below:
c. Group 3—Standard drug group—Diabetic animals received daily a single oral dose of the reference drug Glyclazide 1.44 mg/200 g body weight from day 1 to 15. […]
(§3) Blood samples were collected retro-orbitally from the inner canthus of the eye under light ether anesthesia using capillary tubes (Micro Hemocrit Capillariea, Mucaps) as described by Sorg and Buckner (1964); Blood was transferred into fresh vials and serum was separated by centrifuging at 2000 rpm for 2 min. Blood glucose levels were measured using Accu-Check glucose kit.
(§4) To observe the effect of administration of cow urine powder SMP blends and standard drug glyclazide diabetic rats was determined by measuring the fasting blood glucose levels and serum lipid profiles.
(§5) Day 3 of induction was designed as day 1 for administration of the standard drug glyclazide and cow urine SMP blends to diabetic rats, fasting blood glucose levels measured on days 1, 5, 10 and 15 of the experiment period. Other parameters were determined on after day 15 and residual study was carried out for another 15 days to observe the reappearance diabetes.
(§6) Blood glucose was measured by using Accu-Check Active Glucometer (Roche) and the result was expressed as milligram per deciliter (mg/dl). This instrument is working on the principle of photometry.

For test [2] the test system is unchanged. The test is described as follows: Serum lipid profile (cholesterol, LDL, HDL, triglyceride) in streptozotocin treated diabetic rats. Conditions: for Lipid profile Cholesterol / Lipid profile HDL / Lipid profile LDL / Lipid profile Triglyceride: after 15th day, Glyclazide 1.44 mg/200 g body weight daily. The method, then: as §1, §2, §3, §4, §5
The serum lipid profile parameters such as cholesterol, HDL, LDL and triglycerides content were studied by using blood serum obtained during the experiments.
Cholesterol content in the blood samples were analyzed by using Bio Chemistry
Analyzer which is working on the principle of Lambert's-Beer's law.
For estimation of triglycerides, Bio-chemistry Analyzer was used.

The test system is the same in test [3]. The test is described as follows: Residual effect on blood glucose levels of diabetic rats during 15-day residual period after treatment. Conditions: residual period after withdrawal, Glyclazide 1.44 mg/200 g. As for the experimental part: as §5, §6
Residual effect of standard drug glyclazide group, skim milk powder group and cow urine powder SMP blends groups (100, 200 and 400 mg) for residual of blood glucose levels in streptozotocin treated rats for 15 days and observations were recorded.

Where [4] appears, read: starting value, Glyclazide group.

For the molecule `Cc1ccc(S(=O)(=O)NC(=O)NN2CC3CCCC3C2)cc1` (centres unmarked) [Standard Glyclazide, Glyclazide], in test [1], the “Blood glucose on 15th day” value is 125.25 ± 12.33 mg/dL and the “Blood glucose on 1st day” value is 599.16 ± 57.10 mg/dL. Moreover, in test [1] (listed as glyclazide), the “Blood glucose on 15th day” value was 125.25 mg/dL and 125.2 mg/dL; the “Blood glucose on 1st day” value came out at 599.1 mg/dL. The “percent reduce of blood glucose on 15th day” value in test [1] (vs 1st day, Glyclazide 1.44 mg/200 g body weight daily) is given as “(79.09%)”. For the same molecule, in test [2], the “Lipid profile Cholesterol” value worked out at 67.72 ± 3.37 mg/dL, the “Lipid profile HDL” value came to 51.55 ± 1.91 mg/dL, the “Lipid profile LDL” value amounted to 16.17 ± 5.25 mg/dL and the “Lipid profile Triglyceride” value turned out to be 95.35 ± 3.10 mg/dL. For the same molecule, in test [2] (listed as glyclazide), the “Lipid profile Cholesterol” value was 67.72 mg/dL, the “Lipid profile HDL” value turned out to be 51.55 mg/dL, the “Lipid profile LDL” value came out at 16.17 mg/dL and the “Lipid profile Triglyceride” value came out at 95.35 mg/dL. Further, in test [2] (setting [4]), the “blood HDL level before treatment (increased from)” value is 41.75 mg/dL, the “blood LDL level before treatment (reduced from)” value worked out at 83.73 mg/dL, the “blood cholesterol level before treatment (reduced from)” value stood at 125.44 mg/dL and the “triglyceride level before treatment (reduced from)” value is 187.96 mg/dL. For the same molecule, in test [3], the “Blood glucose level 20th Day” value was found to be 176.50 ± 29.75 mg/dL, the “Blood glucose level 25th Day” value amounted to 174.76 ± 27.42 mg/dL and the “Blood glucose level 30th Day” value was found to be 201.57 ± 29.85 mg/dL. In test [3] (listed as glyclazide), the “Blood glucose level 20th Day” value amounted to 176.50 mg/dL, the “Blood glucose level 25th Day” value was found to be 174.76 mg/dL and the “Blood glucose level 30th Day” value was 201.57 mg/dL.
